Measured values: ChEMBL document CHEMBL5346973 (J Med Chem, 2023)
pIC50: −log10 of the molar value. Where a SMILES comes first, the peptide text is derived from it.

How the values were obtained:
[1] = molecular target: Neuronal acetylcholine receptor subunit alpha-7 (Rattus norvegicus, UniProt Q05941); test: Antagonist activity at rat alpha7 nACh receptor expressed in Xenopus oocyte assessed as inhibition of acetylcholine-induced response at -70 mV holding potential by voltage-clamp based electrophysiological assay; assay type: cell-based
[2] = molecular target: Nicotinic acetylcholine receptor alpha9/alpha10 (Rattus norvegicus, UniProt P43144+Q9JLB5); test: Antagonist activity at rat alpha9alpha10 nACh receptor expressed in Xenopus oocyte assessed as inhibition of acetylcholine-induced response at -70 mV holding potential by voltage-clamp based electrophysiological assay; assay type: cell-based
Nicotinic acetylcholine receptor alpha9/alpha10, sequence (P43144 whole entry): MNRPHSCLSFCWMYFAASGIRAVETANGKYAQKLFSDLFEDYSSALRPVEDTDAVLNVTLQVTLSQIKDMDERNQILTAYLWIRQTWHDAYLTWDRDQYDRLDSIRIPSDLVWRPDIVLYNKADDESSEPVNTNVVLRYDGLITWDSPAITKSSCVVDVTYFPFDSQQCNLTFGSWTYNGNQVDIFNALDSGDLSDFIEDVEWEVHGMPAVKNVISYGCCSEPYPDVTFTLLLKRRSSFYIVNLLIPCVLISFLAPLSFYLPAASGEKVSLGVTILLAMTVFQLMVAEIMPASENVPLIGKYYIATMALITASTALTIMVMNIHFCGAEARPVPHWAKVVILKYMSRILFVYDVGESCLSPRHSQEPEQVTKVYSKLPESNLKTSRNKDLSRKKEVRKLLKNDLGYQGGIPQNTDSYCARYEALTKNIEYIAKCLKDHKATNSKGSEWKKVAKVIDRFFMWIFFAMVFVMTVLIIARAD
Nicotinic acetylcholine receptor alpha9/alpha10, sequence (Q9JLB5 whole entry): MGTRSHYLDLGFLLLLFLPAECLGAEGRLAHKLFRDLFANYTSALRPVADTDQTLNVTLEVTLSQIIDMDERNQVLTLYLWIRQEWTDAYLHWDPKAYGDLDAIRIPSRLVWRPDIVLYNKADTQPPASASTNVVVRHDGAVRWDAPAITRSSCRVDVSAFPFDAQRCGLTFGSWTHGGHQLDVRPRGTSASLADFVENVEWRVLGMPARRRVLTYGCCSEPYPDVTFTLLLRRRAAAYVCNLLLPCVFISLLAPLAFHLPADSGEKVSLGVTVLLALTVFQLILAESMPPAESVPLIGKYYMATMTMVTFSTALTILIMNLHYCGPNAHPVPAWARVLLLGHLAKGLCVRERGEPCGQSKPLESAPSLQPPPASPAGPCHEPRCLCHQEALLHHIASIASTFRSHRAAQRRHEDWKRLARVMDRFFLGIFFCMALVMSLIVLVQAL

Neuronal acetylcholine receptor subunit alpha-7, sequence (Q05941 whole entry): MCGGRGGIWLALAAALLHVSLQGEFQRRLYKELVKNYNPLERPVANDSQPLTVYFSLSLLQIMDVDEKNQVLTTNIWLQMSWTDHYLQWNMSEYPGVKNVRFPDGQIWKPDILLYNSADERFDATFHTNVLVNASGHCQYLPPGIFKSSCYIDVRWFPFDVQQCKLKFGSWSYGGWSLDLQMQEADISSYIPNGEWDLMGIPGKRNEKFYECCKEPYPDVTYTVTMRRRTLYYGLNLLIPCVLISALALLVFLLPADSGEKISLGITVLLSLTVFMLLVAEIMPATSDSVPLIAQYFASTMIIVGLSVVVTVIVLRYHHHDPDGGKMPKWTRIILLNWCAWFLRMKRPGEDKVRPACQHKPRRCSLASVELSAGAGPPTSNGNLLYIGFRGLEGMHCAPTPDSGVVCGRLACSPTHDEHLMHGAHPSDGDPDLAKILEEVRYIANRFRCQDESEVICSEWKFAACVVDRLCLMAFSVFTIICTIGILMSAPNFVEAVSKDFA

SMILES	pIC50 [1]	pIC50 [2]
CC[C@H](C)[C@@H]1NC(=O)[C@H](CCCNC(=N)N)NC(=O)[C@H](CCCNC(=N)N)NC(=O)[C@@H](NC(=O)[C@H](Cc2ccc(O)cc2)NC(=O)[C@H](CCCNC(=N)N)NC(=O)[C@H](CCCNC(=N)N)NC(=O)[C@H](CCCNC(=N)N)NC(=O)[C@H](CCCNC(=N)N)NC(=O)[C@H](CC(=O)O)NC(=O)[C@H](C)NC(=O)[C@@H]2CCCN2C(=O)[C@H](CO)NC(=O)[C@H](CCCNC(=N)N)NC(=O)[C@@H]2CSSC[C@H](NC(=O)[C@@H](N)[C@@H](C)O)C(=O)N[C@@H](CCCNC(=N)N)C(=O)N[C@@H](CO)C(=O)N[C@@H](CO)C(=O)NCC(=O)N[C@@H](CCCNC(=N)N)C(=O)N[C@@H](Cc3ccc(O)cc3)C(=O)N2)CSSC[C@@H](C(=O)N[C@H](C(=O)O)C(C)C)NC(=O)[C@H](C)NC(=O)[C@H](CC(=O)O)NC(=O)[C@H]([C@@H](C)O)NC1=O (HELM PEPTIDE1{T.C.R.S.S.G.R.Y.C.R.S.P.A.D.R.R.R.R.Y.C.R.R.I.T.D.A.C.V}$PEPTIDE1,PEPTIDE1,2:R3-9:R3|PEPTIDE1,PEPTIDE1,20:R3-27:R3$$$V2.0)	5.52	7.96
CC[C@H](C)[C@@H]1NC(=O)[C@H](CCCNC(=N)N)NC(=O)[C@H](CCCNC(=N)N)NC(=O)[C@@H](NC(=O)[C@H](Cc2ccc(O)cc2)NC(=O)[C@H](CCCNC(=N)N)NC(=O)[C@H](CCCNC(=N)N)NC(=O)[C@H](CCCNC(=N)N)NC(=O)[C@H](CCCNC(=N)N)NC(=O)[C@H](CC(=O)O)NC(=O)[C@H](Cc2ccc(O)cc2)NC(=O)[C@H](C)NC(=O)[C@H](CO)NC(=O)[C@H](CCCNC(=N)N)NC(=O)[C@@H]2CSSC[C@H](NC(=O)[C@@H](N)[C@@H](C)O)C(=O)N[C@H](CCCNC(=N)N)C(=O)N[C@@H](CO)C(=O)N[C@@H](CO)C(=O)NCC(=O)N[C@@H](CCCNC(=N)N)C(=O)N[C@@H](Cc3ccc(O)cc3)C(=O)N2)CSSC[C@@H](C(=O)N[C@H](C(=O)O)C(C)C)NC(=O)[C@H](C)NC(=O)[C@H](CC(=O)O)NC(=O)[C@H]([C@@H](C)O)NC1=O	5.65	7.80
CC[C@H](C)[C@@H]1NC(=O)[C@H](C)NC(=O)[C@H](CCCNC(=N)N)NC(=O)[C@@H](NC(=O)[C@H](Cc2ccc(O)cc2)NC(=O)[C@H](CCCNC(=N)N)NC(=O)[C@H](CCCNC(=N)N)NC(=O)[C@H](CCCNC(=N)N)NC(=O)[C@H](CCCNC(=N)N)NC(=O)[C@H](CC(=O)O)NC(=O)[C@H](Cc2ccc(O)cc2)NC(=O)[C@@H]2CCCN2C(=O)[C@H](CO)NC(=O)[C@H](CCCNC(=N)N)NC(=O)[C@@H]2CSSC[C@H](NC(=O)[C@@H](N)[C@@H](C)O)C(=O)N[C@@H](CCCNC(=N)N)C(=O)N[C@@H](CO)C(=O)N[C@@H](CO)C(=O)NCC(=O)N[C@@H](CCCNC(=N)N)C(=O)N[C@@H](Cc3ccc(O)cc3)C(=O)N2)CSSC[C@@H](C(=O)N[C@H](C(=O)O)C(C)C)NC(=O)[C@H](C)NC(=O)[C@H](CC(=O)O)NC(=O)[C@H]([C@@H](C)O)NC1=O	6.22	7.27
CC[C@H](C)[C@@H]1NC(=O)[C@H](CCCNC(=N)N)NC(=O)[C@H](CCCNC(=N)N)NC(=O)[C@@H](NC(=O)[C@H](Cc2ccc(O)cc2)NC(=O)[C@H](CCCNC(=N)N)NC(=O)[C@H](CCCNC(=N)N)NC(=O)[C@H](CCCNC(=N)N)NC(=O)[C@H](CCCNC(=N)N)NC(=O)[C@H](CC(=O)O)NC(=O)[C@H](Cc2ccc(O)cc2)NC(=O)[C@@H]2CCCN2C(=O)[C@H](CO)NC(=O)[C@H](CCCNC(=N)N)NC(=O)[C@@H]2CSSC[C@H](NC(=O)[C@@H](N)[C@@H](C)O)C(=O)N[C@@H](CCCNC(=N)N)C(=O)N[C@@H](CO)C(=O)N[C@@H](CO)C(=O)NCC(=O)N[C@@H](CCCNC(=N)N)C(=O)N[C@@H](Cc3ccc(O)cc3)C(=O)N2)CSSC[C@@H](C(=O)N[C@H](C(=O)O)C(C)C)NC(=O)[C@H](C)NC(=O)[C@H](CC(=O)O)NC(=O)[C@H](C)NC1=O	6.19	7.68
CC[C@H](C)[C@@H]1NC(=O)[C@H](CCCNC(=N)N)NC(=O)[C@H](CCCNC(=N)N)NC(=O)[C@@H]2CSSC[C@H](NC(=O)[C@H](Cc3ccc(O)cc3)NC(=O)[C@H](CCCNC(=N)N)NC(=O)CNC(=O)[C@H](CO)NC(=O)[C@H](CO)NC(=O)[C@H](CCCNC(=N)N)NC(=O)[C@@H](NC(=O)[C@@H](N)[C@@H](C)O)CSSC[C@@H](C(=O)N[C@H](C(=O)O)C(C)C)NC(=O)[C@H](C)NC(=O)[C@H](CC(=O)O)NC(=O)[C@H]([C@@H](C)O)NC1=O)C(=O)N[C@@H](CCCNC(=N)N)C(=O)N[C@@H](CO)C(=O)N1CCC[C@H]1C(=O)N[C@@H](Cc1ccc(O)cc1)C(=O)N[C@@H](CC(=O)O)C(=O)N[C@@H](C)C(=O)N[C@@H](CCCNC(=N)N)C(=O)N[C@@H](CCCNC(=N)N)C(=O)N[C@@H](CCCNC(=N)N)C(=O)N[C@@H](Cc1ccc(O)cc1)C(=O)N2	5.19	7.47
CC[C@H](C)[C@@H]1NC(=O)[C@H](CCCNC(=N)N)NC(=O)[C@H](CCCNC(=N)N)NC(=O)[C@@H]2CSSC[C@H](NC(=O)[C@H](Cc3ccc(O)cc3)NC(=O)[C@H](CCCNC(=N)N)NC(=O)CNC(=O)[C@H](CO)NC(=O)[C@H](CO)NC(=O)[C@H](CCCNC(=N)N)NC(=O)[C@@H](NC(=O)[C@H](C)N)CSSC[C@@H](C(=O)N[C@H](C(=O)O)C(C)C)NC(=O)[C@H](C)NC(=O)[C@H](CC(=O)O)NC(=O)[C@H]([C@@H](C)O)NC1=O)C(=O)N[C@@H](CCCNC(=N)N)C(=O)N[C@@H](CO)C(=O)N1CCC[C@H]1C(=O)N[C@@H](Cc1ccc(O)cc1)C(=O)N[C@@H](CC(=O)O)C(=O)N[C@@H](CCCNC(=N)N)C(=O)N[C@@H](CCCNC(=N)N)C(=O)N[C@@H](CCCNC(=N)N)C(=O)N[C@@H](CCCNC(=N)N)C(=O)N[C@@H](Cc1ccc(O)cc1)C(=O)N2	5.61	7.85
CC[C@H](C)[C@@H]1NC(=O)[C@H](CCCNC(=N)N)NC(=O)[C@H](CCCNC(=N)N)NC(=O)[C@@H](NC(=O)[C@H](Cc2ccc(O)cc2)NC(=O)[C@H](CCCNC(=N)N)NC(=O)[C@H](CCCNC(=N)N)NC(=O)[C@H](CCCNC(=N)N)NC(=O)[C@H](CCCNC(=N)N)NC(=O)[C@H](CC(=O)O)NC(=O)[C@H](Cc2ccc(O)cc2)NC(=O)[C@@H]2CCCN2C(=O)[C@H](CO)NC(=O)[C@H](CCCNC(=N)N)NC(=O)[C@@H]2CSSC[C@H](NC(=O)[C@@H](N)[C@@H](C)O)C(=O)N[C@@H](CCCNC(=N)N)C(=O)N[C@@H](C)C(=O)N[C@@H](CO)C(=O)NCC(=O)N[C@@H](CCCNC(=N)N)C(=O)N[C@@H](Cc3ccc(O)cc3)C(=O)N2)CSSC[C@@H](C(=O)N[C@H](C(=O)O)C(C)C)NC(=O)[C@H](C)NC(=O)[C@H](CC(=O)O)NC(=O)[C@H]([C@@H](C)O)NC1=O	5.85	7.85
CC[C@H](C)[C@@H]1NC(=O)[C@H](CCCNC(=N)N)NC(=O)[C@H](CCCNC(=N)N)NC(=O)[C@@H](NC(=O)[C@H](Cc2ccc(O)cc2)NC(=O)[C@H](CCCNC(=N)N)NC(=O)[C@H](CCCNC(=N)N)NC(=O)[C@H](CCCNC(=N)N)NC(=O)[C@H](CCCNC(=N)N)NC(=O)[C@H](CC(=O)O)NC(=O)[C@H](Cc2ccc(O)cc2)NC(=O)[C@@H]2CCCN2C(=O)[C@H](CO)NC(=O)[C@H](CCCNC(=N)N)NC(=O)[C@@H]2CSSC[C@H](NC(=O)[C@@H](N)[C@@H](C)O)C(=O)N[C@@H](CCCNC(=N)N)C(=O)N[C@@H](CO)C(=O)N[C@@H](C)C(=O)NCC(=O)N[C@@H](CCCNC(=N)N)C(=O)N[C@@H](Cc3ccc(O)cc3)C(=O)N2)CSSC[C@@H](C(=O)N[C@H](C(=O)O)C(C)C)NC(=O)[C@H](C)NC(=O)[C@H](CC(=O)O)NC(=O)[C@H]([C@@H](C)O)NC1=O (HELM PEPTIDE1{T.C.R.S.A.G.R.Y.C.R.S.P.Y.D.R.R.R.R.Y.C.R.R.I.T.D.A.C.V}$PEPTIDE1,PEPTIDE1,2:R3-9:R3|PEPTIDE1,PEPTIDE1,20:R3-27:R3$$$V2.0)	5.84	7.57
CC[C@H](C)[C@@H]1NC(=O)[C@H](CCCNC(=N)N)NC(=O)[C@H](CCCNC(=N)N)NC(=O)[C@@H](NC(=O)[C@H](Cc2ccc(O)cc2)NC(=O)[C@H](C)NC(=O)[C@H](CCCNC(=N)N)NC(=O)[C@H](CCCNC(=N)N)NC(=O)[C@H](CCCNC(=N)N)NC(=O)[C@H](CC(=O)O)NC(=O)[C@H](Cc2ccc(O)cc2)NC(=O)[C@@H]2CCCN2C(=O)[C@H](CO)NC(=O)[C@H](CCCNC(=N)N)NC(=O)[C@@H]2CSSC[C@H](NC(=O)[C@@H](N)[C@@H](C)O)C(=O)N[C@@H](CCCNC(=N)N)C(=O)N[C@@H](CO)C(=O)N[C@@H](CO)C(=O)NCC(=O)N[C@@H](CCCNC(=N)N)C(=O)N[C@@H](Cc3ccc(O)cc3)C(=O)N2)CSSC[C@@H](C(=O)N[C@H](C(=O)O)C(C)C)NC(=O)[C@H](C)NC(=O)[C@H](CC(=O)O)NC(=O)[C@H]([C@@H](C)O)NC1=O	5.34	7.27
CC[C@H](C)[C@@H]1NC(=O)[C@H](CCCNC(=N)N)NC(=O)[C@H](CCCNC(=N)N)NC(=O)[C@@H]2CSSC[C@H](NC(=O)[C@H](Cc3ccc(O)cc3)NC(=O)[C@H](CCCNC(=N)N)NC(=O)CNC(=O)[C@H](CO)NC(=O)[C@H](CO)NC(=O)[C@H](CCCNC(=N)N)NC(=O)[C@@H](NC(=O)[C@@H](N)[C@@H](C)O)CSSC[C@@H](C(=O)N[C@H](C(=O)O)C(C)C)NC(=O)[C@H](C)NC(=O)[C@H](CC(=O)O)NC(=O)[C@H]([C@@H](C)O)NC1=O)C(=O)N[C@@H](CCCNC(=N)N)C(=O)N[C@@H](CO)C(=O)N1CCC[C@H]1C(=O)N[C@@H](Cc1ccc(O)cc1)C(=O)N[C@@H](CC(=O)O)C(=O)N[C@@H](CCCNC(=N)N)C(=O)N[C@@H](C)C(=O)N[C@@H](CCCNC(=N)N)C(=O)N[C@@H](CCCNC(=N)N)C(=O)N[C@@H](Cc1ccc(O)cc1)C(=O)N2	< 5.00	7.08
